# Legend:
# [1] = tested on: COLO-320 xenografts; assay: In vivo PET-CT quantitative image analysis, COLO-320 xenografts; conditions: COLO-320 tumors, NSG mice, 9MBq
# Protocol: (§1) All animal studies were carried out according to regulations set forth and approved by the Johns Hopkins Animal Care and Use Committee. Female, 6- to 8-weeks-old immunodeficient NOD scid gamma (NSG) mice were subcutaneously inoculated with 1 million PC12, STC-1 or COLO-320 cells in […] of Hank’s balanced salt solution in the top flank. Tumors of 4–6 mm in diameter (typically 14-21 days post inoculation) were utilized for in vivo imaging or ex vivo biodistribution studies.
# Mice (n=4) were injected with 9MBq (250μCi) of each tracer in 150μL of saline intravenously and anesthetized with 3% isoflurane prior to being placed on the scanner bed. Mice were kept warm with an external light source and maintained at 1% isoflurane levels while being scanned. PET imaging (2 beds; 10 min per bed) was carried out using an ARGUS small-animal PET/CT scanner (Sedecal). A CT scan (512 projections) was obtained at the end of each PET scan for anatomical co-registration. For in vivo blocking experiments, mice were injected with 10meq of LAT1 inhibitor. PET data were reconstructed using the 2-dimensional ordered subsets-expectation maximization algorithm (2D-OSEM) and corrected for dead time and radioactive decay. Data visualization and image generation were carried out using Amira 2019.1 (ThermoFisher Scientific).
# Quantitative in vivo image analysis was carried out in AMIDE (SourceForge) 1.0.4 utilizing ellipsoid region-of-interest volume integrations with 3 slices entailing a depth of 1.9 mm per slice. The %ID per cc values were calculated based on a calibration factor obtained from a phantom (known radioactive quantity in a known volume).
# [2] = tested on: STC-1 cells; assay: In vitro uptake (binding) assay in STC-1 cells; assay type: cell-based; conditions: 30mins incubation, 1 million cells, % incubated dose/million cells
# Protocol: Both [^18F]FDOPA enantiomers were initially assessed in vitro in all NET cells.
# In vitro binding assays were carried out, in triplicate, in PBS with 0.5% FBS, for 30mins at ambient temperatures using 1 million cells and repeated three times. Blocking studies were carried out using 10meq of the commercial LAT1 inhibitor, 2-Aminobicyclo[2.2.1]heptane-2-carboxylic acid (TOCRIS, MN, USA). Following incubation with each tracer, cells were rinsed three times with cold PBS prior to being counted on an automated gamma counter (1282 Compugamma CS; Pharmacia/LKBNuclear, Inc.) along with external standards. Obtained counts were converted into percentage incubated dose per million cells based on normalization to external standards. Experiments were performed in triplicate and repeated three times.
# [3] = tested on: STC-1 xenografts; assay: Ex vivo biodistribution in NSG mice bearing STC-1 xenografts; conditions: for Biodistribution, Bladder / Biodistribution, Blood / Biodistribution, Bone / Biodistribution, Brain / Biodistribution, Fat / Biodistribution, Heart / Biodistribution, Kidneys / Biodistribution, Liver / Biodistribution, Lungs / Biodistribution, Muscle / Biodistribution, Pancreas / Biodistribution, Small Intestines / Biodistribution, Spleen / Biodistribution, Stomach / Biodistribution, Tumor: STC-1 xenograft NSG mice, 1.5MBq i.v.
# Protocol: as §1
# Mice (n=5 per group) were intravenously injected with 1.5MBq (40μCi) of each tracer in 150μL of saline. Ex vivo biodistribution studies were performed at 30min and 120min time points after tracer administration. Blood, liver, spleen, heart, lungs, kidneys, small intestines, stomach, muscle, fat, bone, bladder, brain and tumor tissues were retrieved, weighed, and counted in an automated gamma counter (1282 Compugamma CS). Percentage injected dose per gram (%ID/g) values were calculated based on normalization to external standards, counted in triplicate, and accounted for signal-decay correction.
smiles,measurement,setting,value
"N[C@H](Cc1cc(O)c(O)cc1[18F])C(=O)O [D-[^18F]FDOPA, 3,4-dihydroxy-6-[^18F]fluoro-D-phenylalanine]","tumor uptake, quantitative PET image analysis",[1]; 30min post i.v. injection,7.20±0.35 %ID/cc
same,"tumor uptake, quantitative PET image analysis",[1]; 120min post i.v. injection,6.93±0.80 %ID/cc
same,in vitro uptake,[2],2.41±0.17%
same,"pancreatic retention, fold lower compared to L-[^18F]FDOPA","[3]; STC-1 mice, 120min p.i.",approximately 2 fold
same,"Biodistribution, Bladder",[3]; 30min p.i.,20.49 %ID/g
same,"Biodistribution, Blood",[3]; 30min p.i.,4.31 %ID/g
same,"Biodistribution, Bone",[3]; 30min p.i.,3.94 %ID/g
same,"Biodistribution, Brain",[3]; 30min p.i.,0.55 %ID/g
same,"Biodistribution, Fat",[3]; 30min p.i.,2.27 %ID/g
same,"Biodistribution, Heart",[3]; 30min p.i.,2.52 %ID/g
same,"Biodistribution, Kidneys",[3]; 30min p.i.,12.32 %ID/g
same,"Biodistribution, Liver",[3]; 30min p.i.,3.85 %ID/g
same,"Biodistribution, Lungs",[3]; 30min p.i.,6.63 %ID/g
same,"Biodistribution, Muscle",[3]; 30min p.i.,1.62 %ID/g
same,"Biodistribution, Pancreas",[3]; 30min p.i.,61.64 %ID/g
same,"Biodistribution, Small Intestines",[3]; 30min p.i.,10.28 %ID/g
same,"Biodistribution, Spleen",[3]; 30min p.i.,17.41 %ID/g
same,"Biodistribution, Stomach",[3]; 30min p.i.,9.37 %ID/g
same,"Biodistribution, Tumor",[3]; 30min p.i.,6.92 %ID/g
same,"Biodistribution, Bladder",[3]; 120min p.i.,7.51 %ID/g
same,"Biodistribution, Blood",[3]; 120min p.i.,1.49 %ID/g
same,"Biodistribution, Bone",[3]; 120min p.i.,5.28 %ID/g
same,"Biodistribution, Brain",[3]; 120min p.i.,1.30 %ID/g
same,"Biodistribution, Fat",[3]; 120min p.i.,1.14 %ID/g
same,"Biodistribution, Heart",[3]; 120min p.i.,1.58 %ID/g
same,"Biodistribution, Kidneys",[3]; 120min p.i.,2.30 %ID/g
same,"Biodistribution, Liver",[3]; 120min p.i.,1.60 %ID/g
same,"Biodistribution, Lungs",[3]; 120min p.i.,2.34 %ID/g
same,"Biodistribution, Muscle",[3]; 120min p.i.,2.66 %ID/g
same,"Biodistribution, Pancreas",[3]; 120min p.i.,9.75 %ID/g
same,"Biodistribution, Small Intestines",[3]; 120min p.i.,3.80 %ID/g
same,"Biodistribution, Spleen",[3]; 120min p.i.,0.61 %ID/g
same,"Biodistribution, Stomach",[3]; 120min p.i.,4.84 %ID/g
same,"Biodistribution, Tumor",[3]; 120min p.i.,3.15 %ID/g

# — publication PMC6791383, “A side-by-side evaluation of [^18F]FDOPA enantiomers for non-invasive detection of neuroendocrine tumors by positron emission tomography” (Oncotarget, 2019)
